According to patent publication US6936585B2, “Corticotropin releasing factor 2 receptor agonists” (priority 2002, dated 2005):
Ends that are not written are not given here. Peptide text beside a SMILES is read from it.

How the values were obtained:
[1] = target: T1, CRF1R (Homo sapiens, UniProt P34998); assay: CRF1R agonist activation (EC50 / Emax), called comparative CRF binding; type: cell-based; details: for Emax: read-out: CRF1R Emax; for EC50: read-out: CRF1R EC50
T1 sequence (P34998 24-415): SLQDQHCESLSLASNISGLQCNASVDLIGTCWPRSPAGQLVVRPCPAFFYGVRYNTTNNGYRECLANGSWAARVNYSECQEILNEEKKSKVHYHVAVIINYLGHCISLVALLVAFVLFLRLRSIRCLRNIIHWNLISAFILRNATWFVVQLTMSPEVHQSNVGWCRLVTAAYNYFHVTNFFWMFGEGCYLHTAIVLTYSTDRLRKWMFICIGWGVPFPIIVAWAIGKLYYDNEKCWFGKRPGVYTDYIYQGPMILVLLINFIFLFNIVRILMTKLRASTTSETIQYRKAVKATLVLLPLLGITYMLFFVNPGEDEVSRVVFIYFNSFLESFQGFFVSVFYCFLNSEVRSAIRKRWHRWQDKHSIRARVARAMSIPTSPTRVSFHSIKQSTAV
In short: (§1)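 Cells expressing full-length human CRF1R or CRF2R were exposed to peptide or vehicle control, and receptor activation was gauged as cAMP induction. cAMP was measured in cell lysates or via a cAMP-responsive element driving a reporter gene such as luciferase, CAT, GFP or alkaline phosphatase.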

[2] = target: T2, CRF2R (Homo sapiens, UniProt Q13324); assay: CRF2R agonist activation (EC50 / Emax), called comparative CRF binding; type: cell-based; details: for Emax: read-out: CRF2R Emax; for EC50: read-out: CRF2R EC50
T2 sequence (Q13324 1-411): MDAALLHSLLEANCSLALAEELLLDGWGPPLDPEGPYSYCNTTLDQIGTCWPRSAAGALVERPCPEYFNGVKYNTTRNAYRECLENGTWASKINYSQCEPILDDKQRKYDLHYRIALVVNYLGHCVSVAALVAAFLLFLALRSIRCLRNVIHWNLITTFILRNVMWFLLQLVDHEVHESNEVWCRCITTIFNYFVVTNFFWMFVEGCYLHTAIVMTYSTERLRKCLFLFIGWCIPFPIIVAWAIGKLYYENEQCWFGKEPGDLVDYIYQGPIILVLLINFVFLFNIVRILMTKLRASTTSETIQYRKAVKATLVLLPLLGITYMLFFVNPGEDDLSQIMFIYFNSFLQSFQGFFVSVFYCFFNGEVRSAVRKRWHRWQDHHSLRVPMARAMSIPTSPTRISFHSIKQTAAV
In short: as §1

Row | Compound | Emax [1] [%] | Emax [2] [%] | EC50 [1] [nM] | EC50 [2] [nM]
1 | CC[C@H](C)[C@H](N)C(=O)N[C@H](C(=O)N[C@@H](CC(C)C)C(=O)N[C@@H](CO)C(=O)N[C@@H](CC(C)C)C(=O)N[C@@H](CC(=O)O)C(=O)N[C@H](C(=O)N1CCC[C@H]1C(=O)N[C@H](C(=O)NCC(=O)N[C@@H](CC(C)C)C(=O)N[C@@H](CC(C)C)C(=O)N[C@@H](CCC(N)=O)C(=O)N[C@H](C(=O)N[C@@H](CC(C)C)C(=O)N[C@@H](CC(C)C)C(=O)N[C@@H](CCC(=O)O)C(=O)N[C@H](C(=O)N[C@@H](CCC(=O)O)C(=O)N[C@@H](CCCCN)C(=O)N[C@@H](CCC(N)=O)C(=O)N[C@@H](CCC(=O)O)C(=O)N[C@@H](CCCCN)C(=O)N[C@@H](CCC(=O)O)C(=O)N[C@@H](CCCCN)C(=O)N[C@@H](CCC(N)=O)C(=O)N[C@@H](CCC(N)=O)C(=O)N[C@@H](C)C(=O)N[C@@H](C)C(=O)N[C@@H](CC(N)=O)C(=O)N[C@@H](CC(N)=O)C(=O)N[C@@H](CCCNC(=N)N)C(=O)N[C@@H](CC(C)C)C(=O)N[C@@H](CC(C)C)C(=O)N[C@@H](CC(C)C)C(=O)N[C@@H](CC(=O)O)C(=O)N[C@H](C(=O)N[C@H](C(N)=O)[C@@H](C)CC)[C@@H](C)O)[C@@H](C)CC)[C@@H](C)CC)[C@@H](C)CC)C(C)C)C(C)C [compound 158] (H-IVLSLDVPIGLLQILLEIEKQEKEKQQAANNRLLLDTI-NH2) | 15 | 89 |  | 
2 | CC[C@H](C)[C@H](N)C(=O)N[C@H](C(=O)N[C@@H](CC(C)C)C(=O)N[C@@H](CO)C(=O)N[C@@H](CC(C)C)C(=O)N[C@@H](CC(=O)O)C(=O)N[C@H](C(=O)N1CCC[C@H]1C(=O)N[C@H](C(=O)NCC(=O)N[C@@H](CC(C)C)C(=O)N[C@@H](CC(C)C)C(=O)N[C@@H](CCC(N)=O)C(=O)N[C@H](C(=O)N[C@@H](CC(C)C)C(=O)N[C@@H](CC(C)C)C(=O)N[C@@H](CCC(=O)O)C(=O)N[C@@H](CCC(N)=O)C(=O)N[C@@H](C)C(=O)N[C@@H](CCCNC(=N)N)C(=O)N[C@@H](CCC(N)=O)C(=O)N[C@@H](CCCNC(=N)N)C(=O)N[C@@H](C)C(=O)N[C@@H](C)C(=O)N[C@@H](CCCNC(=N)N)C(=O)N[C@@H](CCC(=O)O)C(=O)N[C@@H](CCC(N)=O)C(=O)N[C@@H](C)C(=O)N[C@H](C(=O)N[C@H](C(=O)N[C@@H](CC(N)=O)C(=O)N[C@@H](C)C(=O)N[C@@H](CCCNC(=N)N)C(=O)N[C@H](C(=O)N[C@@H](CC(C)C)C(=O)N[C@@H](C)C(=O)N[C@@H](CCCNC(=N)N)C(=O)N[C@H](C(N)=O)C(C)C)[C@@H](C)CC)[C@@H](C)O)[C@@H](C)O)[C@@H](C)CC)[C@@H](C)CC)C(C)C)C(C)C [compound 114] (H-IVLSLDVPIGLLQILLEQARQRAAREQATTNARILARV-NH2; N-terminus assumed) | 6 | 100 |  | 
3 | CC[C@H](C)[C@H](NC(=O)[C@H](CC(=O)O)NC(=O)[C@H](CC(C)C)NC(=O)[C@H](CC(C)C)NC(=O)[C@H](CCCCN)NC(=O)[C@H](CCCNC(=N)N)NC(=O)[C@H](CC(N)=O)NC(=O)[C@H](CO)NC(=O)[C@H](Cc1c[nH]cn1)NC(=O)[C@H](C)NC(=O)[C@H](CCC(N)=O)NC(=O)[C@H](CCC(N)=O)NC(=O)[C@H](C)NC(=O)[C@H](CC(C)C)NC(=O)[C@H](CCC(N)=O)NC(=O)[C@H](CC(=O)O)NC(=O)[C@H](C)NC(=O)[C@H](CCCCN)NC(=O)[C@@H](NC(=O)[C@H](CCSC)NC(=O)[C@H](CCC(=O)O)NC(=O)[C@H](CC(C)C)NC(=O)[C@@H](NC(=O)[C@H](CCC(=O)O)NC(=O)[C@H](CCCNC(=N)N)NC(=O)[C@H](CC(C)C)NC(=O)[C@H](CC(C)C)NC(=O)[C@H](Cc1c[nH]cn1)NC(=O)[C@H](Cc1ccccc1)NC(=O)[C@@H]1CCCN1C(=O)[C@H](CC(C)C)NC(=O)[C@H](CC(=O)O)NC(=O)[C@H](CC(C)C)NC(=O)[C@H](CO)NC(=O)[C@@H](NC(=O)[C@@H]1CCCN1C(=O)[C@@H]1CCCN1C(=O)[C@H](CCC(=O)O)NC(=O)[C@H](CCC(N)=O)NC(=O)[C@@H](N)CO)[C@@H](C)CC)C(C)C)[C@@H](C)O)C(=O)N[C@@H](C)C(N)=O [compound 104] | 11.1 | 4.5 |  | 
4 | NDDPPISIDLPLYLLRNMIEMARIENEREQAGLNAKYLAEV-NH2 [compound 271] | 80.7 | 69 | 815 | 48.1
5 | SQEPPISLDLPLYLLREVLEMTKADQLAQQAHSNRKLLDIA-NH2 [compound 101] | 7.35 | 6.95 |  | 
6 | CC[C@H](C)[C@H](N)C(=O)N[C@H](C(=O)N[C@@H](CC(C)C)C(=O)N[C@@H](CO)C(=O)N[C@@H](CC(C)C)C(=O)N[C@@H](CC(=O)O)C(=O)N[C@H](C(=O)N1CCC[C@H]1C(=O)N[C@H](C(=O)NCC(=O)N[C@@H](CC(C)C)C(=O)N[C@@H](CC(C)C)C(=O)N[C@@H](CCC(N)=O)C(=O)N[C@H](C(=O)N[C@@H](CC(C)C)C(=O)N[C@@H](CC(C)C)C(=O)N[C@@H](CCC(=O)O)C(=O)N[C@@H](CCC(N)=O)C(=O)N[C@H](C(=O)N[C@@H](CCCNC(=N)N)C(=O)N[C@@H](C)C(=O)N[C@@H](CCCNC(=N)N)C(=O)N[C@@H](C)C(=O)N[C@@H](C)C(=O)N[C@@H](CCCNC(=N)N)C(=O)N[C@@H](CCC(=O)O)C(=O)N[C@@H](CCC(N)=O)C(=O)N[C@@H](C)C(=O)N[C@H](C(=O)N[C@H](C(=O)N[C@@H](CC(N)=O)C(=O)N[C@@H](C)C(=O)N[C@@H](CCCNC(=N)N)C(=O)N[C@H](C(=O)N[C@@H](CC(C)C)C(=O)N[C@@H](C)C(=O)N[C@@H](CCCNC(=N)N)C(=O)N[C@H](C(N)=O)C(C)C)[C@@H](C)CC)[C@@H](C)O)[C@@H](C)O)[C@@H](C)O)[C@@H](C)CC)[C@@H](C)CC)C(C)C)C(C)C [compound 128] (H-IVLSLDVPIGLLQILLEQTRARAAREQATTNARILARV-NH2; N-terminus assumed) | 8 | 98 | > 100 | 2.85
7 | NDDPPISIDLPFHLLRNMIEMARIENEREQAGLNAKYLAEV-NH2 [compound 262] | 100 | 92.2 |  | 
8 | CC[C@H](C)[C@H](NC(=O)[C@H](CCC(=O)O)NC(=O)[C@H](C)NC(=O)[C@H](CC(N)=O)NC(=O)[C@H](CCC(N)=O)NC(=O)[C@H](CCC(=O)O)NC(=O)[C@H](C)NC(=O)[C@H](CCCNC(=N)N)NC(=O)[C@H](CCC(=O)O)NC(=O)[C@H](CCCNC(=N)N)NC(=O)[C@H](CCC(N)=O)NC(=O)[C@H](CO)NC(=O)[C@H](CCC(N)=O)NC(=O)[C@@H](NC(=O)[C@H](CCCCN)NC(=O)[C@H](CCC(=O)O)NC(=O)[C@H](CC(C)C)NC(=O)[C@H](CCC(=O)O)NC(=O)[C@H](CC(C)C)NC(=O)[C@H](CC(C)C)NC(=O)[C@@H](NC(=O)[C@H](CCCNC(=N)N)NC(=O)[C@H](CC(C)C)NC(=O)[C@H](CC(C)C)NC(=O)[C@H](CC(C)C)NC(=O)[C@H](CC(C)C)NC(=O)[C@@H]1CCCN1C(=O)[C@H](CC(C)C)NC(=O)[C@H](CC(=O)O)NC(=O)[C@@H](NC(=O)[C@H](CO)NC(=O)[C@H](CC(C)C)NC(=O)[C@H](CO)NC(=O)[C@@H]1CCCN1C(=O)[C@H](CC(N)=O)NC(=O)[C@@H](N)CC(=O)O)[C@@H](C)CC)[C@@H](C)O)[C@@H](C)O)C(=O)N[C@@H](Cc1ccccc1)C(=O)N[C@@H](C)C(=O)N[C@@H](CCC(=O)O)C(=O)N[C@H](C(N)=O)C(C)C [compound 323] (H-DNPSLSIDLPLLLLRTLLELEKTQSQRERAEQNAEIFAEV-NH2; N-terminus assumed) | 36.9 | 100 |  | 
9 | CC[C@H](C)[C@H](N)C(=O)N[C@H](C(=O)N[C@@H](CC(C)C)C(=O)N[C@@H](CO)C(=O)N[C@@H](CC(C)C)C(=O)N[C@@H](CC(=O)O)C(=O)N[C@H](C(=O)N1CCC[C@H]1C(=O)N[C@H](C(=O)NCC(=O)N[C@@H](CC(C)C)C(=O)N[C@@H](CC(C)C)C(=O)N[C@@H](CCC(N)=O)C(=O)N[C@H](C(=O)N[C@@H](CC(C)C)C(=O)N[C@@H](CC(C)C)C(=O)N[C@@H](CCC(=O)O)C(=O)N[C@@H](CCC(N)=O)C(=O)N[C@@H](C)C(=O)N[C@@H](C)C(=O)N[C@@H](CCCNC(=N)N)C(=O)N[C@@H](C)C(=O)N[C@@H](C)C(=O)N[C@@H](CCCNC(=N)N)C(=O)N[C@@H](CCC(=O)O)C(=O)N[C@@H](CCC(N)=O)C(=O)N[C@@H](C)C(=O)N[C@H](C(=O)N[C@H](C(=O)N[C@@H](CC(N)=O)C(=O)N[C@@H](C)C(=O)N[C@@H](CCCNC(=N)N)C(=O)N[C@H](C(=O)N[C@@H](CC(C)C)C(=O)N[C@@H](C)C(=O)N[C@@H](CCCNC(=N)N)C(=O)N[C@H](C(N)=O)C(C)C)[C@@H](C)CC)[C@@H](C)O)[C@@H](C)O)[C@@H](C)CC)[C@@H](C)CC)C(C)C)C(C)C [compound 135] (H-IVLSLDVPIGLLQILLEQAARAAREQATTNARILARV-NH2) | 6 | 76 |  | 
